Results published in US20020107269A1, “Benzoxazole LPAAT-B inhibitors and uses thereof” (CELL THERAPEUTICS, INC., priority 2000, published 2002).
pIC50: −log10 of the molar value.

Molecular target: T1, LPAAT-β (Homo sapiens, UniProt O15120)
T1 construct: the full-length human LPAAT-β cDNA was amplified by PCR; poly-histidine tag (N); made in house; host or cells: Sf9 insect cells (baculovirus, pFastBac HTc); membrane fraction used
T1 sequence (O15120 24-278): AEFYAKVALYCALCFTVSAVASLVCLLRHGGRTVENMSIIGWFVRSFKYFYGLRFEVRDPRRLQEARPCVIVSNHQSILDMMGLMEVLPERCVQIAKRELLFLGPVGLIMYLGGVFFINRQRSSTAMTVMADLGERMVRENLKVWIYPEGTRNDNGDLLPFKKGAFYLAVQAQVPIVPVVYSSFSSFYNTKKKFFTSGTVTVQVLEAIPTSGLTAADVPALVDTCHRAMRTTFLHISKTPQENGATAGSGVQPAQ
Assay: LPAAT-β colorimetric assay (DTNB detection of released CoA)
Format: biochemical
Conditions: Sf9 cell membrane overexpressing LPAAT-β; 18:1-CoA and sn-1-18:1 lysoPA; absorbance at 405 nm; read-out: LPAATβ Colorimetric Assay IC50
Excerpt: For the construction of Baculovirus expression vectors, the full-length human LPAAT-β cDNA was amplified by PCR from the DNA template pCE9.LPAAT-β (West et al., DNA Cell Biol. 16:691-701 (1997)) using the primers 5′-TGATATCCGAAGAAGATCTTATGGAGCTGTGGCCGTGTC-3′ (olpb1F) and 5′-CAGGCTCTAG ACTACTGGGC CGGCTGCAC-3′ (olpb1R). The ˜870 bp fragment generated was reamplified by PCR using the primers 5′ CCTACGTCG ACATGGAACAAAAATTGATATCCGAAGAAGATC-3′ (olpb2F) and 5′-CAGGCTCTAG ACTACTGGGC CGGCTGCAC-3′ (olpb1R). The ˜890 bp fragment generated was then cleaved with Sal I and Xba I for insertion into pFastBac™ HTc vector (Life Technologies, Gaithersberg, Md.) between the Sal I and Xba I sites for the generation of the plasmid pFB.LPAAT-β. This plasmid was then transformed into E. coli DH10Bac™ (Life Technologies, Gaithersberg, Md.) for the generation of recombinant Bacmid DNA for transfection into HighFive (Invitrogen, San Diego, Calif.) or SF9 insect cells for the production of recombinant Baculovirus stocks using the protocol described in the Bac-to-Bac® Baculovirus Expression System (Life Technologies, Gaithersberg, Md.), a eukaryotic expression system for generating recombinant baculovirus through site-specific transposition in E. coli. Viral stocks harvested from the transfected cells can then be used to infect fresh insect cells for the subsequent expression of LPAAT-β fusion protein with a poly-histidine tag and a myc-epitope near its N-terminus. The membrane fraction from these Sf9 cells would be the source of LPAAT enzyme.
For the preparation of membranes From Sf9 Cells, all steps are performed on ice or at 4° C. Sf9 cell pellets ([…]) were thawed and resuspended in 1-2 ml of buffer A (20 mM Hepes, pH 7.5, 1 mM DTT, 1 mM EDTA, 20% w/v glycerol, 1 mM Benzamidine, 1 μg/ml soybean trypsin inhibitor (SBTI), 1 μg/ml pepstatin A) w/o DTT but with 1 mM Pefabloc. The cells were lysed by sonication using a Branson Sonifier at output=2, duty cycle=2, 10 pulses each at 10 s. with the tip of small sonicator probe submerged but not touching the walls. DTT was then added to 1 mM from a 1M stock. The samples were centrifuged at 1500 rpm for 5 min. The low speed supernatant was saved and centrifuged (TLA 100.3 rotor, polycarbonate tubes, 2 ml/tube or 1.5 ml/tube minimum) at 100000×g for 1 hr. The high speed pellet was resuspend in Buffer A with a probe sonicator (10 pulses @ output #2 and duty cycle 20%) as a source of LPAAT enzyme.
LPAAT-β catalyzes the transfer of an acyl group from a donor such as acyl-CoA to LPA. The transfer of the acyl group from acyl-CoA to LPA leads to the release of free CoA, which can be reacted with the thiol reagent, 5,5′-dithiobis(2-nitrobenzoic acid) (DTNB). The reaction between DTNB and the free sulfhydryl group from CoA generates a yellow-colored product, 3-carboxylato-4-nitrothiophenolate (CNP), that absorbs at 413 nm. LPAAT-β derived from Sf9 cell membrane overexpressing LPAAT-β were resuspended in HEPES saline buffer (20 mM HEPES pH 7.5, 150 mM NaCl), 1 mg/ml BSA and 72 μl aliquots were distributed into 96-well microtiter plates. 8 μl of compound of interest at 200 μM dissolved in 100% DMSO was added into each well. 20 μl of 1 mM 18:1-CoA and 1 mM sn-1-18:1 lysoPA was then added to each well to initiate the reaction and allowed to run at room temperature for 25 min. 100 μl of 1 mM DTNB in 100% ethanol was then added to each well to quench the reaction and for color development. The absorbance at 405 nm, measured using a spectrophotometer plate reader, is proportional to the activity of LPAAT-β in the sample. This calorimetric assay was used for the high throughput screening of LPAAT inhibitors. […] Compounds that gave a reading of less than 0.06 arbitrary units (indicated by arrow on right margin) were selected for further study.

pIC50 | SMILES
4.97 | COC(=O)Nc1ccc(Cl)c(-c2nc3cc(C)ccc3n2C)c1 [CT-32061, (4-Chloro-3-(1,5-dimethyl-1H-benzoimidazol-2-yl)-phenyl)-carbamic Acid Methyl Ester]
7.40 | C#CCCC(=O)Nc1ccc(Cl)c(-c2nc3cc(Cl)ccc3s2)c1 [CT-32278, Pent-4-ynoic acid [4-chloro-3-(5-chloro-benzothiazol-2-yl)-phenyl]-amide]
7.26 | C#CCCOC(=O)Nc1ccc(Cl)c(-c2nc3cc(Cl)ccc3s2)c1 [CT-32277, [4-Chloro-3-(5-chloro-benzothiazol-2-yl)-phenyl]-carbamic Acid But-3-ynyl Ester]
7.82 | N#CCC(=O)Nc1ccc(Cl)c(-c2nc3cc(Cl)ccc3s2)c1 [CT-32242, N-(4-Chloro-3-(5-chloro-benzothiazol-2-yl)-phenyl)-2-cyano-acetamide]
4.81 | CCC(=O)Nc1ccc(F)c(-c2nc3cc(C)ccc3o2)c1 [CT-32011, N-(4-Fluoro-3-(5-methyl-benzooxazol-2-yl)-phenyl)-propionamide]
6.72 | N#CCC(=O)Nc1ccc(Cl)c(-c2nc3cccnc3o2)c1 [CT-32271, N-(4-Chloro-3-oxazolo[5,4,b]pyridin-2-yl-phenyl)-2-cyano-acetamide]
7.40 | COC(=O)Nc1ccc(Cl)c(-c2nc3cc(Cl)ccc3s2)c1 [CT-32191, [4-Chloro-3-(5-chloro-benzothiazol-2-yl)-phenyl]-carbamic Acid Methyl Ester]
7.40 | C#CCOC(=O)Nc1ccc(C)c(-c2nc3cc(C(F)(F)F)ccc3s2)c1 [CT-32203, 4-Methyl-3-(5-trifluoromethyl-benzothiazol-2-yl)-phenyl-carbamic Acid Prop-2-ynyl Ester]
6.76 | [N-]=[N+]=NCC(=O)Nc1ccc(Cl)c(-c2nc3cc(Cl)ccc3o2)c1 [CT-32289, 2-Azido-N-[4-chloro-3-(5-chloro-benzooxazol-2-yl)-phenyl]-acetamide]
6.82 | C#CCOC(=O)Nc1ccc(C)c(-c2nc3cc(Cl)ccc3s2)c1 [CT-32268, [3-(5-chloro-benzothiazol-2-yl)-4-methyl-phenyl]-carbamic Acid Prop-2-ynyl Ester]
8.22 | C#CCOC(=O)Nc1ccc(Cl)c(-c2nc3cc(Cl)ccc3s2)c1 [CT-32192, (4-Chloro-3-(5-chloro-benzothiazol-2-yl)-phenyl)-carbamic Acid Prop-2-ynyl ester]
6.05 | CCC(=O)Nc1ccc(Cl)c(-c2nc3ccccc3o2)c1 [CT-32008, N-(3-Benzooxazol-2-yl-4-chloro-phenyl)-propionamide]
6.66 | CCC(=O)Nc1ccc(Cl)c(-c2nc3cc(C(F)(F)F)ccc3s2)c1 [CT-32142, N-(4-Chloro-3-(5-trifluoromethyl-benzothiazol-2-yl)-phenyl)-propionamide]
6.72 | C#CCOC(=O)Nc1ccc(Cl)c(-c2nc3cc(C)ccc3o2)c1 [CT-32037, (4-Chloro-3-(5-methyl-benzooxazol-2-yl)-phenyl)-carbamic Acid Prop-2-ynyl Ester]
7.22 | C#CCOC(=O)Nc1ccc(Cl)c(-c2nc3cc(Cl)ccc3n2C)c1 [CT-32243, [4-Chloro-3-(5-chloro-1-methyl-1H-benzoimidazol-2-yl)-phenyl]-carbamic Acid Prop-2-ynyl Ester]
6.80 | C#CCOC(=O)Nc1ccc(Cl)c(-c2nc3c(C)cccc3o2)c1 [CT-32079, (4-Chloro-3-(4-methyl-benzooxazol-2-yl)-phenyl)-carbamic acid Prop-2-ynyl Ester]

pIC50 | SMILES
7.82 | C#CCOC(=O)Nc1ccc(Cl)c(-c2nc3cc(C(F)(F)F)ccc3s2)c1 [CT-32143, (4-Chloro-3-(5-trifluoromethyl-benzothiazol-2-yl)-phenyl)-carbamic Acid Prop-2-ynyl Ester]
6.52 | COC(=O)Nc1ccc(Cl)c(-c2nc3cc(Cl)ccc3o2)c1 [CT-32053, (4-Chloro-3-(5-chloro-benzooxazol-2-yl)-phenyl)-carbamic Acid Methyl Ester]
7.30 | C#CCOC(=O)Nc1ccc(Cl)c(-c2nc3ccccc3o2)c1 [CT-32154, (3-Benzooxazol-2-yl-4-chloro-phenyl)-carbamic Acid Prop-2-ynyl Ester]
4.92 | CCC(=O)N(C)c1ccc(Cl)c(-c2nc3cc(C)ccc3o2)c1 [CT-32019, N-(4-Chloro-3-(5-methyl-benzooxazol-2-yl)-phenyl)-N-methyl-propionamide]
6.70 | COC(=O)Nc1ccc(Cl)c(-c2nc3cc(C(F)(F)F)ccc3s2)c1 [CT-32073, (4-Chloro-3-(5-trifluoromethyl-benzothiazol-2-yl)-phenyl)-carbamic Acid Methyl Ester]
6.96 | N#CCC(=O)Nc1ccc(Cl)c(-c2nc3cccnc3s2)c1 [CT-32315, N-(4Chloro-3-thiazolo[5,4,b]pyridin-2-yl-phenyl)-2-cyano-acetamide]
6.30 | COC(=O)Nc1ccc(Cl)c(-c2nc3ccccc3o2)c1 [CT-32009, (3-Benzooxazol-2-yl-4-chloro-phenyl)-carbamic Acid Methyl Ester]
6.46 | CCC(=O)Nc1ccc(Cl)c(-c2nc3cc(Cl)ccc3o2)c1 [CT-32160, N-(4-Chloro-3-(5-chloro-benzooxazol-2-yl)-phenyl)-propionamide]
7.46 | C#CCOC(=O)Nc1ccc(Cl)c(-c2nc3cc(Cl)ccc3o2)c1 [CT-32161, (4-Chloro-3-(5-chloro-benzooxazol-2-yl)-phenyl)-carbamic Acid Prop-2-ynyl Ester]
5.82 | COC(=O)Nc1ccc(C)c(-c2nc3cc(C)ccc3o2)c1 [CT-32036, (4-Methyl-3-(5-methyl-benzooxazol-2-yl)-phenyl)-carbamic Acid Methyl Ester]
5.92 | C#CCOC(=O)Nc1ccc(C)c(-c2nc3cccnc3o2)c1 [CT-32290, (4-Methyl-3-oxazolo[5,4,b]pyridin-2-yl-phenyl)-carbamic Acid Prop-2-ynyl Ester]
6.85 | C#CCOC(=O)Nc1ccc(Cl)c(-c2nc3cc(C(F)(F)F)ccc3o2)c1 [CT-32173, (4-Chloro-3-(5-trifluoromethyl-benzooxazol-2-yl)-phenyl)-carbamic Acid Prop-2-ynyl Ester]
6.57 | N#CCC(=O)Nc1ccc(Cl)c(-c2nc3cc(Cl)ccc3o2)c1 [CT-32214, N-[4-Chloro-3-(5-chloro-benzooxazol-2-yl)-phenyl]-2-cyano-acetamide]
6.10 | C#CCOC(=O)Nc1ccc(Cl)c(-c2nc3ncccc3o2)c1 [CT-32259, (4-Chloro-3-oxazolo[4,5,b]pyridin-2-yl-phenyl)-carbamic Acid Prop-2-ynyl Ester]
7.60 | CC#CCOC(=O)Nc1ccc(Cl)c(-c2nc3cc(Cl)ccc3s2)c1 [CT-32262, (4-Chloro-3-(5-chloro-benzothiazol-2-yl)-phenyl)-carbamic Acid But-2-ynyl Ester]
